Experimental data from patent US9969749B2, “Inhibitors of IRAK4 activity” (MERCK SHARP & DOHME CORP., priority 2014, dated 2018).

The compounds below were run against IRAK4 (Homo sapiens (Human), UniProt Q9NWZ3) (assay: IRAK4 Kinase Assay (IMAP fluorescence polarization)). Conditions: 0.5 nM GST tagged IRAK4, 100 μM ATP, 100 nM fluorescent peptide substrate RP7030, 30 minutes at 25° C.
Assay type: biochemical
Procedure, shortened: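 GST-tagged IRAK4 (0.5 nM) phosphorylates 100 nM fluorescent peptide with 100 μM ATP in 10 mM Tris pH 7.2, 1 mM MgCl2, 1 mM DTT, 0.01% Tween 20 for 30 min at 25 °C. Phosphorylation read as IMAP nanoparticle-binding fluorescence polarization after stop reagent.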

IRAK4, sequence (Q9NWZ3 whole entry): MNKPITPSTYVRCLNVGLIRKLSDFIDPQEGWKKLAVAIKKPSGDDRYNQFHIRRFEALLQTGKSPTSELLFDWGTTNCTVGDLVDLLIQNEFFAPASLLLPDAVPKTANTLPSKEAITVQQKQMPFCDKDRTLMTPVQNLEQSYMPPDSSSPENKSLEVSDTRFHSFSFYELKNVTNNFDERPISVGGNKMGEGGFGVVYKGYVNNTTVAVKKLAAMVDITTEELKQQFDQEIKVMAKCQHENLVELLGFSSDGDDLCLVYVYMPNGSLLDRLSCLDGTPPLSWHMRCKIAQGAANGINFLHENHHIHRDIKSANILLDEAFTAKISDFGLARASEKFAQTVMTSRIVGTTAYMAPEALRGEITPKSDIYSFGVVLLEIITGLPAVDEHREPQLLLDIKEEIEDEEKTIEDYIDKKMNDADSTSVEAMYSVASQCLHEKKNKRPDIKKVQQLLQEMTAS

Structure (SMILES)	IC50 [nM]
CS(=O)(=O)N1CCN([C@H]2CC[C@H](Nc3ncnc4ccc(-c5cnc(F)c(O)c5)cc34)CC2)CC1 [Example 5-14, 2-fluoro-5-[4-({trans-4-[4-(methylsulfonyl)piperazin-1-yl]cyclohexyl}amino)quinazolin-6-yl]pyridin-3-ol]	1
Oc1cncc(-c2ccc3ncnc(N[C@H]4CC[C@H](N5CCC(F)(F)CC5)CC4)c3c2)c1 [Example 5-17, 5-(4-{[trans-4-(4,4-difluoropiperidin-1-yl)cyclohexyl]amino}quinazolin-6-yl)pyridin-3-ol]	< 0.5
Nc1cc(-c2ccc3ncnc(N[C@H]4CC[C@H](N5CCCC(CN6CCOCC6)C5)CC4)c3c2)cnc1F (stereo partly drawn) [Example 5-21, 6-(5-amino-6-fluoropyridin-3-yl)-N-{trans-4-[3-(morpholin-4-ylmethyl)piperidin-1-yl]cyclohexyl}quinazolin-4-amine]	2
CNc1cc(-c2ccc3ncnc(N[C@H]4CC[C@H](N5C[C@@H](C)O[C@@H](C)C5)CC4)c3c2)cnc1F [Example 5-26, N-{trans-4-[(2R,6S)-2,6-dimethylmorpholin-4-yl]cyclohexyl}-6-[6-fluoro-5-(methylamino)pyridin-3-yl]quinazolin-4-amine]	1
CNc1cc(-c2ccc3ncnc(N[C@H]4CC[C@H](N5CCC(F)(F)CC5)CC4)c3c2)cnc1F [Example 5-27, N-[trans-4-(4,4-difluoropiperidin-1-yl)cyclohexyl]-6-[6-fluoro-5-(methylamino)pyridin-3-yl]quinazolin-4-amine]	2
CNc1cc(-c2ccc3ncnc(N[C@H]4CC[C@H](N5CCN(C(=O)C6CC6)CC5)CC4)c3c2)cnc1F [Example 5-28, cyclopropyl {4-[trans-4-({6-[6-fluoro-5-(methylamino)pyridin-3-yl]quinazolin-4-yl}amino)cyclohexyl]piperazin-1-yl}methanone]	1
CNc1cc(-c2ccc3ncnc(N[C@H]4CC[C@H](N5CCO[C@H](C)C5)CC4)c3c2)cnc1F [Example 5-30, 6-[6-fluoro-5-(methylamino)pyridin-3-yl]-N-{trans-4-[(2R)-2-methylmorpholin-4-yl]cyclohexyl}quinazolin-4-amine]	1
CNc1cc(-c2ccc3ncnc(N[C@H]4CC[C@H](N5CCO[C@@H](C)C5)CC4)c3c2)cnc1F [Example 5-31, 6-[6-fluoro-5-(methylamino)pyridin-3-yl]-N-{trans-4-[(2S)-2-methylmorpholin-4-yl]cyclohexyl}quinazolin-4-amine]	1

More lines, now with the values ahead:

IC50 [nM]	Structure (SMILES)
2	Nc1cc(-c2ccc3ncnc(N[C@H]4CC[C@H](N5CCC(F)(F)CC5)CC4)c3c2)cnc1F [Example 5-15, 6-(5-amino-6-fluoropyridin-3-yl)-N-[trans-4-(4,4-difluoropiperidin-1-yl)cyclohexyl]quinazolin-4-amine]
1	Nc1cc(-c2ccc3ncnc(N[C@H]4CC[C@H](N5CCC(F)CC5)CC4)c3c2)cnc1F [Example 5-16, 6-(5-amino-6-fluoropyridin-3-yl)-N-[trans-4-(4-fluoropiperidin-1-yl)cyclohexyl]quinazolin-4-amine]
< 0.5	Oc1cncc(-c2ccc3ncnc(N[C@H]4CC[C@H](N5CCC(F)CC5)CC4)c3c2)c1 [Example 5-18, 5-(4-{[trans-4-(4-fluoropiperidin-1-yl)cyclohexyl]amino}quinazolin-6-yl)pyridin-3-ol]
1	C[C@@H]1CN([C@H]2CC[C@H](Nc3ncnc4ccc(-c5cnc(F)c(N)c5)cc34)CC2)C[C@H](C)O1 [Example 5-19, 6-(5-amino-6-fluoropyridin-3-yl)-N-{trans-4-[(2R,6S)-2,6-dimethylmorpholin-4-yl]cyclohexyl}quinazolin-4-amine]
4	CS(=O)(=O)N1CCN([C@H]2CC[C@H](Nc3ncnc4ccc(-c5cnc(F)c(N)c5)cc34)CC2)CC1 [Example 5-20, 6-(5-amino-6-fluoropyridin-3-yl)-N-{trans-4-[4-(methylsulfonyl)piperazin-1-yl]cyclohexyl}quinazolin-4-amine]
4	Nc1cc(-c2ccc3ncnc(N[C@H]4CC[C@H](N5CCO[C@@H](CF)C5)CC4)c3c2)cnc1F [Example 5-22, 6-(5-amino-6-fluoropyridin-3-yl)-N-{trans-4-[(2R)-2-(fluoromethyl)morpholin-4-yl]cyclohexyl}quinazolin-4-amine]
6	Nc1cc(-c2ccc3ncnc(N[C@H]4CC[C@H](N5CCO[C@H](CF)C5)CC4)c3c2)cnc1F [Example 5-23, 6-(5-amino-6-fluoropyridin-3-yl)-N-{trans-4-[(2S)-2-(fluoromethyl)morpholin-4-yl]cyclohexyl}quinazolin-4-amine]
1	C[C@@H]1CN([C@H]2CC[C@H](Nc3ncnc4ccc(-c5cnc(F)c(N)c5)cc34)CC2)CCO1 [Example 5-24, 6-(5-amino-6-fluoropyridin-3-yl)-N-{trans-4-[(2R)-2-methylmorpholin-4-yl]cyclohexyl}quinazolin-4-amine]
1	C[C@H]1CN([C@H]2CC[C@H](Nc3ncnc4ccc(-c5cnc(F)c(N)c5)cc34)CC2)CCO1 [Example 5-25, 6-(5-amino-6-fluoropyridin-3-yl)-N-{trans-4-[(2S)-2-methylmorpholin-4-yl]cyclohexyl}quinazolin-4-amine]
2	CNc1cc(-c2ccc3ncnc(N[C@H]4CC[C@H](N5CCC(F)CC5)CC4)c3c2)cnc1F [Example 5-29, 6-[6-fluoro-5-(methylamino)pyridin-3-yl]-N-[trans-4-(4-fluoropiperidin-1-yl)cyclohexyl]quinazolin-4-amine]
